Test results reported in article PMC9230548, “Synthesis and Biological Evaluation of Novel Synthetic Indolone Derivatives as Anti-Tumor Agents Targeting p53-MDM2 and p53-MDMX” (Molecules, 2022).

Tests used:
MDMX = molecular target: T1, MDMX (Homo sapiens, UniProt O15151); experiment: fluorescence polarization assay, MDMX binding
T1 sequence (O15151 1-490): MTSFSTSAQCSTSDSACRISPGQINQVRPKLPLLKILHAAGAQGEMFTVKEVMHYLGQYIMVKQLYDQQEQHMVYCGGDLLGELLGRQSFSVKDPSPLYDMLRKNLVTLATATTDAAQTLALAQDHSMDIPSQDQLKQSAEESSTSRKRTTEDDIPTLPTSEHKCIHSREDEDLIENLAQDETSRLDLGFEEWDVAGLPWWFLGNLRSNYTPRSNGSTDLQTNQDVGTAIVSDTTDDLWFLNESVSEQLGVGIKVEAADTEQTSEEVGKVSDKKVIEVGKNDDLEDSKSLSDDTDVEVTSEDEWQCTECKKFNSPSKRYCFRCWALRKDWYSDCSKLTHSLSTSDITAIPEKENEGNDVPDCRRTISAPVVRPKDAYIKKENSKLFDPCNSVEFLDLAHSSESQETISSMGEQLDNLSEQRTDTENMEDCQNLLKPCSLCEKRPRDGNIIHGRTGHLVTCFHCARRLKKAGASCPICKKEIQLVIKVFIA
Procedure: (§3) The MDM2 and MDMX binding evaluation for the target compounds was carried out using the fluorescence polarization assay.
(§4) Dose-dependent MDM2 and MDMX binding evaluations were carried out using the fluorescence polarization assay.
(§5) A total of 30 nM preincubated (30 min) MDM2 (or MDMX) and 10 nM PMDM-F peptide in reaction buffer (100 μL, potassium phosphate, 100 mM; bovine gamma globulin, 100 mg/mL; sodium azide, 0.02%) were added into a 96-well plate containing the tested compounds at pH 7.5.

MDM2 = MDM2 (Homo sapiens, UniProt Q00987); experiment: fluorescence polarization assay, MDM2 binding
Procedure: as §3, §4, §5

[1] = system: HCT116 cells with wild type p53; experiment: Western blotting of p53, MDM2 and MDMX levels; format: cell-based; conditions: HCT116 cells, 0, 5, 10 and 20 μM, 48 h, Western blot
Procedure: The dual inhibition of the p53-MDM2 and p53-MDMX interactions is expected to activate p53, increasing its level in the cells with wild-type p53. In addition, p53 activation can also result in an increase in the levels of the MDM2 and MDMX proteins. To verify these predictions, Western blotting was used to assess the effects of compound A13 in the HCT 116 cells. The cells were treated with compound A13 for 48 h. Subsequently, the cells were lysed and protein extracts were analyzed for the levels of p53, MDM2, and MDMX.
The HCT116 cells with wild type p53 were treated with compound A13 (0, 5, 10, and 20 μM) for 48 h. The cells were harvested and lysed with RIPA buffer (Sigma, St. Louis, […], USA) supplemented with a protease inhibitor cocktail (Sigma), followed by centrifugation at 12,000× g for 10 min. The supernatants were heated to 100 °C with loading buffer and the total protein concentrations were determined using a Bio-Rad protein assay. Protein samples were subjected to SDS-PAGE and transferred to a PVDF membrane. The membrane was blocked with 5% non-fat milk, and then incubated with the corresponding primary antibody (MDM2, MDMX, p53, and GAPDH) at 4 °C overnight. After binding with an appropriate secondary antibody conjugated with peroxidase, proteins were visualized using the ECL chemiluminescence system. GAPDH was used as a loading control.

HCT116 cell line = experiment: MTT assay, HCT116; format: cell-based; conditions: Homo sapiens, HCT-116, 48 h, average of three determinations
Procedure: (§1) Compounds were tested at six concentrations (0.001–100 μM).
(§2) The cells were seeded into a 96-well plate and allowed to attach overnight, after which various concentrations of test compounds or DMSO were added to the culture medium and the cells were incubated for 48 h at 37 °C in a 5% CO2 humidified incubator. Then, 20 μL of 0.5% the fresh MTT solution was added to each well. After incubation for another 4 h, the culture medium was removed and 150 μL of DMSO was added to dissolve the formazan crystals. The absorbance at 540 nm was measured using a microplate reader. The results, expressed as IC50 values, were the average of three determinations and were calculated using nonlinear regression analysis.

MCF7 cell line = experiment: MTT assay, MCF7; format: cell-based; conditions: Homo sapiens, MCF7, 48 h, average of three determinations
Procedure: as §1, §2

A549 cell line = experiment: MTT assay, A549; format: cell-based; conditions: Homo sapiens, A549, 48 h, average of three determinations
Procedure: as §1, §2

MDM2, sequence (Q00987 whole entry): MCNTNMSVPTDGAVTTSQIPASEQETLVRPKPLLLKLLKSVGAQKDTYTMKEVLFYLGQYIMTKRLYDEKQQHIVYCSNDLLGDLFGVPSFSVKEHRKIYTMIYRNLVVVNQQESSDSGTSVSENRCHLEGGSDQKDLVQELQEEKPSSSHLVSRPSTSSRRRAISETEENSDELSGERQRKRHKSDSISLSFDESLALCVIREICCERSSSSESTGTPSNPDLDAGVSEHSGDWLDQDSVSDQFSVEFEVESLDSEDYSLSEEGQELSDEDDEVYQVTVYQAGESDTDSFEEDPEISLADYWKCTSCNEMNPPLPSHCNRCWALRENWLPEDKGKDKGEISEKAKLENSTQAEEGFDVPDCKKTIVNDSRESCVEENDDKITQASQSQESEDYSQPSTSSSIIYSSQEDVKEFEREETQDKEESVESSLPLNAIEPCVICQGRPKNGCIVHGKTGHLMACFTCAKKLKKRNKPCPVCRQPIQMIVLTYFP

Ki (MDMX): 7.24 ± 0.78 µM
Ki (MDM2): 0.031 ± 0.007 µM
IC50 (HCT116 cell line): 6.17 ± 0.93 µM
IC50 (MCF7 cell line): 11.2 ± 1.95 µM
IC50 (A549 cell line): 12.5 ± 2.01 µM
SMILES: O=C1/C(=C/c2cccc(Cl)c2)c2ccccc2N1S(=O)(=O)c1cccc(Cl)c1 [Compound A13, (E)-3-(3-chlorobenzylidene)-1-((3-chlorophenyl)sulfonyl)indolin-2-one]
expression of MDM2 [1]: induced in a dose-dependent manner
expression of MDMX [1]: induced in a dose-dependent manner
level of p53 proteins [1]: dose-dependent increase
